Experiment [1] deals with T1, Alpha-2D Adrenergic Receptor (Rattus norvegicus, UniProt P22909).
T1 construct: aliquots of the synaptic membrane fraction; from tissue; host or cells: rat cerebral cortex, synaptic membrane fraction (male Wistar rats)
T1 sequence (P22909 1-465): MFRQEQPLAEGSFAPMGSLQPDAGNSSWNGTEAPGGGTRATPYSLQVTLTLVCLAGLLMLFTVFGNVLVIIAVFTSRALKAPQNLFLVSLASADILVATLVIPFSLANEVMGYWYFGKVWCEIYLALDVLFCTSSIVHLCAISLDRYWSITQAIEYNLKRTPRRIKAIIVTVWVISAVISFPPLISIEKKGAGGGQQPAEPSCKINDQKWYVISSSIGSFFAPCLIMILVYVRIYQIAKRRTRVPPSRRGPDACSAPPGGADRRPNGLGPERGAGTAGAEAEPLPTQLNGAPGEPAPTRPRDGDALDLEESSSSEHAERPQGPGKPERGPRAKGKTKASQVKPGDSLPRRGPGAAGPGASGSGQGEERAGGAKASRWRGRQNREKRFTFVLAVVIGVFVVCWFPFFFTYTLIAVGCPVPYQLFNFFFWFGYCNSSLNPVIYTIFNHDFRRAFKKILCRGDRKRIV
Kind of experiment: Alpha-2D Adrenergic Receptor Binding Assay (3H-para-aminoclonidine, rat cortex membranes). The conditions noted are these: rat cortex synaptic membranes. The method, then:
Male, Wistar rats (150-250 g, VAF, Charles River, Kingston, N.Y.) are sacrificed by cervical dislocation and their brains removed and placed immediately in ice cold HEPES buffered sucrose. The cortex is dissected out and homogenized in 20 volumes of HEPES sucrose in a Teflon™-glass homogenizer. The homogenate is centrifuged at 1000 g for 10 min, and the resulting supernatant centrifuged at 42,000 g for 10 min. The resulting pellet is resuspended in 30 volumes of 3 mM potassium phosphate buffer, pH 7.5, preincubated at 25° C. for 30 min and recentrifuged. The resulting pellet is resuspended as described above and used for the receptor binding assay. Incubation is performed in test tubes containing phosphate buffer, 2.5 mM MgCl2, aliquots of the synaptic membrane fraction, the ligand ^3 H-para-aminoclonidine and test drug at 25° C. for 20 min. The incubation is terminated by filtration of the tube contents through glass fiber filter sheets. Following washing of the sheets with 10 mM HEPES buffer, the adhering radioactivity is quantified by liquid scintillation spectrometry.
Binding of the test drug to the receptor is determined by comparing the amount of radiolabeled ligand bound in control tubes without drug to the amount of radiolabeled ligand bound in the presence of the drug. Dose-response data are analyzed with LIGAND, a nonlinear curve fitting program designed specifically for the analysis of ligand binding data. This assay is described by Simmons, R. M. A., and Jones, D. J., Binding of [^3 H-]prazosin and [^3 H]p-aminoclonidine to (α-Adrenoceptors in Rat Spinal Cord, Brain Research 445:338-349, 1988.

For experiment [2], the system named is abdominal constriction response. Kind of experiment: Mouse Acetylcholine Bromide-Induced Abdominal Constriction Assay (MAIT). The experiment is classed as in vivo. The conditions noted are these: 30 mg/kg po; 5.5 mg/kg i.p. acetylcholine bromide 30 minutes later; ten minute observation. Here is the method: The mouse acetylcholine bromide-induced abdominal constriction assay, is described by Collier et al. in Brit. J. Pharmacol. Chem. Ther., 32: 295-310, 1968, with minor modifications was used to assess analgesic potency of the compounds herein. The test drugs or appropriate vehicle were administered orally (p.o.) and 30 minutes later the animal received an intraperitoneal (i.p.) injection of 5.5 mg/kg acetylcholine bromide (Matheson, Coleman and Bell, East Rutherford, N.J.). The mice were then placed in groups of three into glass bell jars and observed for a ten minute observation period for the occurrence of an abdominal constriction response (defined as a wave of constriction and elongation passing caudally along the abdominal wall, accompanied by a twisting of the trunk and followed by extension of the hind limbs). The percent inhibition of this response to a nociceptive stimulus (equated to % analgesia) was calculated as follows: The % Inhibition of response, i.e., % analgesia is equal to the difference between the number of control animals responding and the number of drug-treated animals responding times 100 divided by the number of control animals responding.
At least 15 animals were used for control and in each of the drug treated groups. At least three doses were used to determine each dose response curve and ED50 (that dose which would produce 50% analgesia). The ED50 values and their 95% fiducial limits were determined by a computer assisted probit analysis.

Where [3] appears, read: 25° C., 20 min, read-out: α-2D Binding Ki.

Where two headings read alike, the source gives them in different places.

The Ki is the dissociation constant of the complex between target and ligand, obtained from inhibition or displacement. In the case of `c1cc(-c2c[nH]cn2)c2ccsc2c1` [Cp-1, 4-(Thionaphth-4-yl)-1H-imidazole (Z)-2-butenedioate], the inhibition constant Ki in experiment [1] (setting [3]) is 2.6 nM. In addition, the “MAIT Activity % Inhibition” value in experiment [2] is 73%.
As for `C1=C(c2c[nH]cn2)c2ccsc2CC1` [Cp-2, 4-(4-Imidazoyl)-6,7-dihydrothianapthene Perchlorate], in experiment [1] (setting [3]), the Ki was 1.5 nM. In experiment [2], the “MAIT Activity % Inhibition” value was 100%.
Take `C1=C(c2c[nH]cn2)c2sccc2CC1` [Cp-7]: in experiment [1] (setting [3]), the inhibitory constant (Ki) is 3 nM. Also, in experiment [2], the “MAIT Activity % Inhibition” value is on record as 60%.
For `Cc1sc(C)c2c1CCC=C2c1c[nH]cn1` [Cp-4, 4-(1,3-Dimethyl-6,7-dihydrobenzo[c]thiophene-4-yl)-1H-imidazole(Z)-2-Butenedioate], in experiment [1] (value in parentheses, not explained, read-out: α-2D Binding Ki (second value, in parentheses)), the Ki was 1.2 nM. Also, the “MAIT Activity % Inhibition” value in experiment [2] is recorded as 40%.
On to `c1nc(C2CCCc3ccsc32)c[nH]1` (stereo not shown) [Cp-6], for which the Ki in experiment [1] (setting [3]) is 0.35 nM.
`Cc1sc(C)c2c1CCCC2c1c[nH]cn1.O=C(O)/C=C\C(=O)O` (stereo not shown) [Cp-5, 4-(1,3-Dimethyl-4,5,6,7-tetrahydrobenzo[c]thiophene-4-yl)-1H-imidazole (Z)-2-Butenedioate]: the Ki in experiment [1] (setting [3]) came out at 2.9 nM. Further, the “MAIT Activity % Inhibition” value in experiment [2] is given as 93%.
Take `c1nc(C2CCCc3sccc32)c[nH]1` (stereo not shown) [Cp-3, 4-(4-Imidazoyl)-4,5,6,7-tetrahydrothianapthene Perchlorate]: the Ki in experiment [1] (setting [3]) worked out at 0.56 nM. In addition, the “MAIT Activity % Inhibition” value in experiment [2] came to 100%.

The record behind these values is patent US6313309A, “4-thionaphthyl--1H--imidazoles which are usefulα22-adrenoceptoR agonists/ antagonists” (Ortho-McNeil Pharmaceutical, Inc., priority 1999, dated 2001).
